Reference: ChEMBL document CHEMBL4411303, “Synthesis of tetrazole derivatives bearing pyrrolidine scaffold and evaluation of their antifungal activity against Candida albicans” (Eur J Med Chem, 2019)

Tests used:
Assay type in all cases: functional
Candida albicans [1] = experiment: Antifungal activity against Candida albicans ATCC 90028 assessed as planktonic growth inhibition at 1.31 uM after 48 hrs by M27-A3 protocol based method relative to control; settings: ATCC 90028, 48 h, read-out: GI
Candida albicans [2] = experiment: Antifungal activity against Candida albicans ATCC 90028 assessed as planktonic growth inhibition at 10.47 uM after 48 hrs by M27-A3 protocol based method relative to control; settings: ATCC 90028, 48 h, read-out: GI
Candida albicans [3] = experiment: Antifungal activity against Candida albicans ATCC 90028 assessed as planktonic growth inhibition at 0.65 uM after 48 hrs by M27-A3 protocol based method relative to control; settings: ATCC 90028, 48 h, read-out: GI
Candida albicans [4] = experiment: Fungicidal activity against Candida albicans ATCC 90028 assessed as log reduction in fungal load incubated for 48 hrs followed by replating on sabouraud dextrose agar plate and measured after 48 hrs
Candida albicans [5] = experiment: Antifungal activity against Candida albicans ATCC 90028 assessed as planktonic growth inhibition at 41.9 uM after 48 hrs by M27-A3 protocol based method relative to control; settings: ATCC 90028, 48 h, read-out: GI
Candida albicans [6] = experiment: Antifungal activity against Candida albicans ATCC 90028 assessed as planktonic growth inhibition at 2.62 uM after 48 hrs by M27-A3 protocol based method relative to control; settings: ATCC 90028, 48 h, read-out: GI
Candida albicans [7] = experiment: Antifungal activity against Candida albicans ATCC 90028 assessed as planktonic growth inhibition at 0.16 uM after 48 hrs by M27-A3 protocol based method relative to control; settings: ATCC 90028, 48 h, read-out: GI
Candida albicans [8] = experiment: Antifungal activity against Candida albicans ATCC 90028 assessed as planktonic growth inhibition at 0.08 uM after 48 hrs by M27-A3 protocol based method relative to control; settings: ATCC 90028, 48 h, read-out: GI
Candida albicans [9] = experiment: Antifungal activity against Candida albicans ATCC 90028 assessed as planktonic growth inhibition at 5.24 uM after 48 hrs by M27-A3 protocol based method relative to control; settings: ATCC 90028, 48 h, read-out: GI
Candida albicans [10] = experiment: Antifungal activity against Candida albicans ATCC 90028 assessed as planktonic growth inhibition at 0.33 uM after 48 hrs by M27-A3 protocol based method relative to control; settings: ATCC 90028, 48 h, read-out: GI
Candida albicans [11] = experiment: Antifungal activity against Candida albicans ATCC 90028 assessed as planktonic growth inhibition at 20.95 uM after 48 hrs by M27-A3 protocol based method relative to control; settings: ATCC 90028, 48 h, read-out: GI
Candida albicans [12] = experiment: Antifungal activity against Candida albicans ATCC 90028 assessed as planktonic growth inhibition at 0.17 uM after 48 hrs by M27-A3 protocol based method relative to control; settings: ATCC 90028, 48 h, read-out: GI
Candida albicans [13] = experiment: Antifungal activity against Candida albicans ATCC 90028 assessed as planktonic growth inhibition at 10.87 uM after 48 hrs by M27-A3 protocol based method relative to control; settings: ATCC 90028, 48 h, read-out: GI
Candida albicans [14] = experiment: Antifungal activity against Candida albicans ATCC 90028 assessed as planktonic growth inhibition at 21.75 uM after 48 hrs by M27-A3 protocol based method relative to control; settings: ATCC 90028, 48 h, read-out: GI
Candida albicans [15] = experiment: Antifungal activity against Candida albicans ATCC 90028 assessed as planktonic growth inhibition at 43.49 uM after 48 hrs by M27-A3 protocol based method relative to control; settings: ATCC 90028, 48 h, read-out: GI
Candida albicans [16] = experiment: Antifungal activity against Candida albicans ATCC 90028 assessed as planktonic growth inhibition at 5.44 uM after 48 hrs by M27-A3 protocol based method relative to control; settings: ATCC 90028, 48 h, read-out: GI
Candida albicans [17] = experiment: Antifungal activity against Candida albicans ATCC 90028 assessed as planktonic growth inhibition at 0.34 uM after 48 hrs by M27-A3 protocol based method relative to control; settings: ATCC 90028, 48 h, read-out: GI
Candida albicans [18] = experiment: Antifungal activity against Candida albicans ATCC 90028 assessed as planktonic growth inhibition at 0.68 uM after 48 hrs by M27-A3 protocol based method relative to control; settings: ATCC 90028, 48 h, read-out: GI
Candida albicans [19] = experiment: Antifungal activity against Candida albicans ATCC 90028 assessed as planktonic growth inhibition at 1.36 uM after 48 hrs by M27-A3 protocol based method relative to control; settings: ATCC 90028, 48 h, read-out: GI
Candida albicans [20] = experiment: Antifungal activity against Candida albicans ATCC 90028 assessed as planktonic growth inhibition at 2.72 uM after 48 hrs by M27-A3 protocol based method relative to control; settings: ATCC 90028, 48 h, read-out: GI

SMILES	inhibition of growth at 1.31 µM (Candida albicans [1])	inhibition of growth at 10.47 µM (Candida albicans [2])	inhibition of growth at 0.65 µM (Candida albicans [3])	log(activity) (Candida albicans [4])	inhibition of growth at 41.9 µM (Candida albicans [5])	inhibition of growth at 2.62 µM (Candida albicans [6])	inhibition of growth at 0.16 µM (Candida albicans [7])	inhibition of growth at 0.08 µM (Candida albicans [8])	inhibition of growth at 5.24 µM (Candida albicans [9])	inhibition of growth at 0.33 µM (Candida albicans [10])	inhibition of growth at 20.95 µM (Candida albicans [11])	inhibition of growth at 0.17 µM (Candida albicans [12])	inhibition of growth at 10.87 µM (Candida albicans [13])	inhibition of growth at 21.75 µM (Candida albicans [14])	inhibition of growth at 43.49 µM (Candida albicans [15])	inhibition of growth at 5.44 µM (Candida albicans [16])	inhibition of growth at 0.34 µM (Candida albicans [17])	inhibition of growth at 0.68 µM (Candida albicans [18])	inhibition of growth at 1.36 µM (Candida albicans [19])	inhibition of growth at 2.72 µM (Candida albicans [20])
Cc1cccc(C2CCCN2CCCn2nnc(-c3ccccc3Cl)n2)c1 (stereo not given)	99.2%	99.6%	99.2%	-0.5	99.8%	99.3%	99.1%	99.1%	99.4%	99.2%	99.7%	–	–	–	–	–	–	–	–	–
Clc1ccc(C2CCCN2CCCn2nnc(-c3ccccc3)n2)cc1 (stereo not given)	–	–	–	-1.4	–	–	–	99.4%	–	–	–	99.3%	99.2%	99.4%	99.6%	99.3%	99.4%	99.4%	99.4%	99.2%
Clc1ccccc1-c1nnn(CCCN2CCCC2c2ccccc2)n1 (stereo not given)	–	–	–	-0.3	–	–	–	98.8%	–	–	–	98.9%	99.2%	99.4%	99.5%	99.1%	99%	99%	99.1%	99.1%
Cc1ccc(C2CCCN2CCCn2nnc(-c3ccc(Cl)cc3)n2)cc1 (stereo not given)	99.4%	99.4%	99.2%	-0.5	99.2%	99.2%	99.1%	99.2%	99.4%	99.3%	99.4%	–	–	–	–	–	–	–	–	–
Cc1ccc(-c2nnn(CCCN3CCCC3c3ccc(Cl)cc3)n2)cc1 (stereo not given)	99.2%	99.4%	99.1%	-0.4	98.8%	99.3%	99.5%	99.4%	99%	99.2%	99.2%	–	–	–	–	–	–	–	–	–
